Earlier results, collected in EP2151445B1, “Process for the preparation of bidentate Schiff base ruthenium catalysts containing a salicylaldimine-type ligand” (Rimtec Corporation, priority 2008, dated 2010).

Conditions: in water

| pKb | Compound |
| --- | --- |
| about 3.69 | O=C([O-])[O-].[Cu+2] [CuCO3] |
| about 3.69 | O=C([O-])[O-].[K+].[K+] [K2CO3] |
| about 3.69 | O=C([O-])[O-].[Li+].[Li+] [Li2CO3] |
| about 3.69 | O=C([O-])[O-].[Na+].[Na+] [Na2CO3] |
